According to ChEMBL document CHEMBL1649526, “Selection of heterogeneous vancomycin-intermediate Staphylococcus aureus by imipenem” (2009):
Values after ≈ are worked out from the molar mass of the structure shown. Positions of bridges follow the written chain, without caps; N, C: chain ends. Non-standard residues stand in square brackets, D forms with d. Residues, ends and D or L forms follow the SMILES beside them. *: point of attachment. Ileψ(thiazoline)Cys = CC[C@H](C)[C@H](N)C1=N[C@H](C(=O)*)CS1; dOrn = NCCC[C@@H](N)C(=O)O

Key:
Assay type in all cases: functional
Staphylococcus aureus [1] = test: Antibacterial activity against hetero-Methicillin-resistant and tetracycline-resistant and rifampicin-resistant Staphylococcus aureus deltaIP-rifR harboring RpoB H481Y mutant gene by Etest method
Staphylococcus aureus [2] = test: Antibacterial activity against hetero-Methicillin-resistant and tetracycline-resistant Staphylococcus aureus deltaIP by Etest method
Staphylococcus aureus [3] = test: Antibacterial activity against methicillin-susceptible, tetracycline-resistant and chloramphenicol-resistant Staphylococcus aureus deltaIP-KVR by Etest method
Staphylococcus aureus [4] = test: Antibacterial activity against homo-Methicillin-resistant and tetracycline-resistant Staphylococcus aureus H14 harboring vraS S329L mutant gene by Etest method
Staphylococcus aureus [5] = test: Antibacterial activity against homo-Methicillin-resistant and tetracycline-resistant and rifampicin-resistant Staphylococcus aureus deltaIP-rifR::vraSH14 by Etest method
Staphylococcus aureus [6] = test: Antibacterial activity against homo-Methicillin-resistant and tetracycline-resistant Staphylococcus aureus deltaIP::vraSH14 harboring vraSH14 S329L mutant gene by Etest method
Staphylococcus aureus [7] = test: Antibacterial activity against methicillin-susceptible, tetracycline-resistant and chloramphenicol-resistant Staphylococcus aureus H14-KVR by Etest method
Staphylococcus aureus [8] = test: Antibacterial activity against hetero-vancomycin-intermediate Staphylococcus aureus Mu3 by Etest method

Cc1onc(-c2ccccc2)c1C(=O)N[C@@H]1C(=O)N2[C@@H]1SC(C)(C)[C@@H]2C(=O)O [OXACILLIN]
MIC (Staphylococcus aureus [1]): 5 µg/mL (≈ 12.5 µM)
MIC (Staphylococcus aureus [2]): 6 µg/mL (≈ 14.9 µM)
MIC (Staphylococcus aureus [3]): 1.5 µg/mL (≈ 3.74 µM)
MIC (Staphylococcus aureus [4]): > 256 µg/mL
MIC (Staphylococcus aureus [5]): > 256 µg/mL
MIC (Staphylococcus aureus [6]): > 256 µg/mL
MIC (Staphylococcus aureus [7]): 1.5 µg/mL (≈ 3.74 µM)
MIC (Staphylococcus aureus [8]): > 256 µg/mL

C[C@@H](O)[C@H]1C(=O)N2C(C(=O)O)=C(SCCNC=N)C[C@H]12 [IMIPENEM ANHYDROUS]
MIC (Staphylococcus aureus [1]): 1 µg/mL (≈ 3.34 µM)
MIC (Staphylococcus aureus [2]): 0.75 µg/mL (≈ 2.51 µM)
MIC (Staphylococcus aureus [3]): 0.19 µg/mL (≈ 0.635 µM)
MIC (Staphylococcus aureus [4]): > 32 µg/mL
MIC (Staphylococcus aureus [5]): > 32 µg/mL
MIC (Staphylococcus aureus [6]): > 32 µg/mL
MIC (Staphylococcus aureus [7]): 0.19 µg/mL (≈ 0.635 µM)
MIC (Staphylococcus aureus [8]): > 32 µg/mL

CO[C@H]1/C=C/O[C@@]2(C)Oc3c(C)c(O)c4c(O)c(c(/C=N/N5CCN(C)CC5)c(O)c4c3C2=O)NC(=O)/C(C)=C\C=C\[C@H](C)[C@H](O)[C@@H](C)[C@@H](O)[C@@H](C)[C@H](OC(C)=O)[C@@H]1C [RIFAMPIN]
MIC (Staphylococcus aureus [1]): > 32 µg/mL
MIC (Staphylococcus aureus [2]): 0.004 µg/mL (≈ 0.00486 µM)
MIC (Staphylococcus aureus [3]): 0.004 µg/mL (≈ 0.00486 µM)
MIC (Staphylococcus aureus [4]): 0.004 µg/mL (≈ 0.00486 µM)
MIC (Staphylococcus aureus [5]): > 32 µg/mL
MIC (Staphylococcus aureus [6]): 0.004 µg/mL (≈ 0.00486 µM)
MIC (Staphylococcus aureus [7]): 0.004 µg/mL (≈ 0.00486 µM)
MIC (Staphylococcus aureus [8]): 0.006 µg/mL (≈ 0.00729 µM)

CC[C@H](C)[C@H](N)C1=N[C@H](C(=O)N[C@@H](CC(C)C)C(=O)N[C@H](CCC(=O)O)C(=O)N[C@H](C(=O)N[C@H]2CCCCNC(=O)[C@H](CC(N)=O)NC(=O)[C@@H](CC(=O)O)NC(=O)[C@H](Cc3cnc[nH]3)NC(=O)[C@@H](Cc3ccccc3)NC(=O)[C@H]([C@@H](C)CC)NC(=O)[C@@H](CCCN)NC2=O)[C@@H](C)CC)CS1 [BACITRACIN] ({Ileψ(thiazoline)Cys}-L[dE]IK[dOrn]I[dF]H[dD]N; lactam 4-C)
MIC (Staphylococcus aureus [1]): 24 µg/mL (≈ 16.9 µM)
MIC (Staphylococcus aureus [2]): 32 µg/mL (≈ 22.5 µM)
MIC (Staphylococcus aureus [3]): 4 µg/mL (≈ 2.81 µM)
MIC (Staphylococcus aureus [4]): 96 µg/mL (≈ 67.5 µM)
MIC (Staphylococcus aureus [5]): 96 µg/mL (≈ 67.5 µM)
MIC (Staphylococcus aureus [6]): 96 µg/mL (≈ 67.5 µM)
MIC (Staphylococcus aureus [7]): 4 µg/mL (≈ 2.81 µM)
MIC (Staphylococcus aureus [8]): 256 µg/mL (≈ 180 µM)

CN[C@H](CC(C)C)C(=O)N[C@H]1C(=O)N[C@@H](CC(N)=O)C(=O)N[C@H]2C(=O)N[C@H]3C(=O)N[C@H](C(=O)N[C@H](C(=O)O)c4cc(O)cc(O)c4-c4cc3ccc4O)[C@H](O)c3ccc(c(Cl)c3)Oc3cc2cc(c3O[C@@H]2O[C@H](CO)[C@@H](O)[C@H](O)[C@H]2O[C@H]2C[C@](C)(N)[C@H](O)[C@H](C)O2)Oc2ccc(cc2Cl)[C@H]1O [VANCOMYCIN]
MIC (Staphylococcus aureus [3]): 0.75 µg/mL (≈ 0.518 µM)
MIC (Staphylococcus aureus [5]): 3 µg/mL (≈ 2.07 µM)
MIC (Staphylococcus aureus [7]): 0.75 µg/mL (≈ 0.518 µM)
MIC (Staphylococcus aureus [8]): 3 µg/mL (≈ 2.07 µM)

GENTAMICIN
MIC (Staphylococcus aureus [1]): 1 µg/mL
MIC (Staphylococcus aureus [2]): 0.75 µg/mL
MIC (Staphylococcus aureus [3]): 0.75 µg/mL
MIC (Staphylococcus aureus [4]): 0.75 µg/mL
MIC (Staphylococcus aureus [5]): 1 µg/mL
MIC (Staphylococcus aureus [6]): 0.75 µg/mL
MIC (Staphylococcus aureus [7]): 0.75 µg/mL
MIC (Staphylococcus aureus [8]): 384 µg/mL

CCCCCCCCCC(=O)N[C@@H](Cc1c[nH]c2ccccc12)C(=O)N[C@H](CC(N)=O)C(=O)N[C@@H](CC(=O)O)C(=O)N[C@@H]1C(=O)NCC(=O)N[C@@H](CCCN)C(=O)N[C@@H](CC(=O)O)C(=O)N[C@H](C)C(=O)N[C@@H](CC(=O)O)C(=O)NCC(=O)N[C@H](CO)C(=O)N[C@@H]([C@H](C)CC(=O)O)C(=O)N[C@@H](CC(=O)c2ccccc2N)C(=O)O[C@@H]1C
MIC (Staphylococcus aureus [1]): 0.5 µg/mL (≈ 0.309 µM)
MIC (Staphylococcus aureus [2]): 0.75 µg/mL (≈ 0.463 µM)
MIC (Staphylococcus aureus [3]): 0.5 µg/mL (≈ 0.309 µM)
MIC (Staphylococcus aureus [4]): 1.75 µg/mL (≈ 1.08 µM)
MIC (Staphylococcus aureus [5]): 2 µg/mL (≈ 1.23 µM)
MIC (Staphylococcus aureus [6]): 1.75 µg/mL (≈ 1.08 µM)
MIC (Staphylococcus aureus [7]): 0.5 µg/mL (≈ 0.309 µM)
MIC (Staphylococcus aureus [8]): 2 µg/mL (≈ 1.23 µM)

C[C@@H]1O[C@@H]1P(=O)(O)O [FOSFOMYCIN]
MIC (Staphylococcus aureus [1]): 1.5 µg/mL (≈ 10.9 µM)
MIC (Staphylococcus aureus [2]): 1 µg/mL (≈ 7.24 µM)
MIC (Staphylococcus aureus [3]): 0.38 µg/mL (≈ 2.75 µM)
MIC (Staphylococcus aureus [4]): 96 µg/mL (≈ 695 µM)
MIC (Staphylococcus aureus [5]): 96 µg/mL (≈ 695 µM)
MIC (Staphylococcus aureus [6]): 96 µg/mL (≈ 695 µM)
MIC (Staphylococcus aureus [7]): 0.38 µg/mL (≈ 2.75 µM)
MIC (Staphylococcus aureus [8]): > 1020 µg/mL
